{"source": "patent US8097625B2", "about": "“Combination of sedative and a neurotransmitter modulator, and methods for improving sleep quality and treating depression” (priority 2003, dated 2012)", "key": {"[1]": {"system": "subjects with insomnia related to major depressive disorder", "test": "DREAMDD clinical study: Clinical Global Impression (Severity 1=normal to 7=most extremely depressed; Global Improvement 1=very much improved to 7=very much worse)", "format": "in vivo, human", "conditions": "for CGI - Global Improvement, Mean (SD) / CGI - Global Improvement, Median / CGI - Severity, Change from Baseline, Mean (SD) / CGI - Severity, Change from Baseline, Median / CGI - Severity, Observed Value, Mean (SD) / CGI - Severity, Observed Value, Median / CGI - Severity, Change from Baseline, Least Squares Mean (SE): ITT; for CGI - Severity, Change from Baseline, Least Squares Mean (SE): ANCOVA", "protocol": "Depression Response to Eszopiclone in Adults With Major Depressive Disorder (DREAMDD): A Randomized, Double-Blind, Placebo-Controlled, Parallel-Group, 8-Week, Safety and Efficacy Study of Eszopiclone 3 mg Compared to Placebo in Subjects with Insomnia Related to Major Depressive Disorder\nThis study was a double-blind randomized, placebo-controlled, parallel group study. […] All subjects must satisfy DSM-IV criteria for insomnia related to major depression.\nSleep, Depression, and Productivity Questionnaires and Clinical Global Impression: The following questionnaires were administered as listed below. • Epworth Sleepiness Scale (ESS): ESS was completed by the subject at Visits 2-10. The ESS is a subjective assessment of the likelihood of falling asleep in various situations. • Insomnia Severity Index (ISI): ISI was completed by the subject at Visits 3, 5, 7, 9 and 10. The ISI is a subjective assessment of sleep quality, restedness/refreshness upon arising, daytime fatigue, attention/concentration and relationship and mood disturbances. • Work Limitations Questionnaire (WLQ): WLQ was completed by the subject at Visits 3, 5, 7, 9, and 10. The WLQ is a validated self-report instrument for measuring the degree to which chronic health problems interfere with ability to perform job roles, addressing the content of the job through a demand-level methodology. • Hamilton Depression-17: HAM-D-17 was administered via IVRS at screening and rated by a trained clinician at Visits 3, 7, 9, and 10. • SF-36: SF-36 was completed by the subject at Visits 3, 7, 9 and 10. The SF-36 represents multiple operational definitions of health, including function and dysfunction, distress and well-being, objective reports and subjective ratings, and both favorable and unfavorable self-evaluations of general health status. • Clinical Global Impression (CGI): CGI was completed by the investigator at Visits 3-10 The CGI is the investigator's subjective assessment of improvement in the subject's depressive symptoms. The response on the CGI at Visit 7 (Week 4 of double-blind treatment) was used by the investigator to assess the need for increasing the dose of fluoxetine to 40 mg daily (in the morning). […] Study Conduct\nClinical Global Impression: In this test, a medical professional rates the patient's depression and whether the improvement in depression is due to the drug treatment. Question 1) Severity: Considering your total clinical experience with this particular population, how depressed is the patient at this time? Respond by indicating 1=normal, not at all depressed, 2=borderline depressed, 3=mildly depressed, 4=moderately depressed, 5=markedly depressed, 6=severely depressed, or 7=among the most extremely depressed patients. Question 2) Global Improvement: Rate total improvement whether or not, in your judgment, it is due entirely to drug treatment. Compared to his/her condition at Visit 3, how much has he/she changed?\nMethods: Patients who met DSM-IV criteria for new MDD and insomnia received fluoxetine 20 mg QAM plus either eszopiclone 3 mg (n=275) or placebo (n=270) nightly for 8 weeks. Efficacy was assessed using HAMD17 and Clinical Global Impression Improvement (CGI-I) and Severity (CGI-S). Response=50% decrease from baseline HAMD17; remission=HAMD17≦7."}, "[2]": {"test": "DREAMDD clinical study: subject disposition", "format": "in vivo, human", "conditions": "of 270 randomized; 3 mg nightly + fluoxetine", "from_the_text": "Subjects who discontinued early for any reason were replaced.\nSubject Disposition and Drug Exposure: Subject disposition was summarized and presented for the number and percentage of subjects, who were screened, randomized, received treatment, completed the study, and discontinued early (including reasons for discontinuations). For each subject, the number of doses taken was computed from the study drug dispensation and accountability CRF records obtained at each visit, assuming that subjects took their study drug medication evenly throughout the between-visits periods. The extent of exposure to the double-blind medication as well as the number of doses taken during the double-blind treatment period was summarized with descriptive statistics and presented by treatment group."}, "[3]": {"conditions": "Visit 4 (Week 1), 3 mg nightly + fluoxetine"}, "[4]": {"conditions": "Visit 5 (Week 2), 3 mg nightly + fluoxetine"}, "[5]": {"conditions": "Visit 6 (Week 3), 3 mg nightly + fluoxetine"}, "[6]": {"conditions": "Visit 7 (Week 4), 3 mg nightly + fluoxetine"}, "[7]": {"conditions": "Visit 8 (Week 6), 3 mg nightly + fluoxetine"}, "[8]": {"conditions": "Visit 9 (Week 8), 3 mg nightly + fluoxetine"}, "[9]": {"conditions": "Visit 10 (EOT; Week 10, after single-blind wash-out), eszopiclone 3 mg group"}}, "data": [{"compound": "CN1CCN(C(=O)OC2c3nccnc3C(=O)N2c2ccc(Cl)cn2)CC1", "note": "(single isomer, unassigned; (+)) [Eszopiclone, (+) 6-(5-chloro-2-pyridinyl)-6,7-dihydro-7-oxo-5H-pyrrolo[3,4b]pyrazin-5-yl 4-methylpiperazine-1-carboxylate]", "values": [{"measurement": "CGI - Global Improvement, Mean (SD)", "setting": "[1]; [3]", "value": "3.3 (0.8)"}, {"measurement": "CGI - Global Improvement, Median", "setting": "[1]; [3]", "value": 3.0}, {"measurement": "CGI - Severity, Change from Baseline, Mean (SD)", "setting": "[1]; [3]", "value": "−0.3 (0.7)"}, {"measurement": "CGI - Severity, Change from Baseline, Median", "setting": "[1]; [3]", "value": 0.0}, {"measurement": "CGI - Severity, Observed Value, Mean (SD)", "setting": "[1]; [3]", "value": "4.0 (0.7)"}, {"measurement": "CGI - Severity, Observed Value, Median", "setting": "[1]; [3]", "value": 4.0}, {"measurement": "CGI - Severity, Change from Baseline, Least Squares Mean (SE)", "setting": "[1]; [3]", "value": "−0.3 (0.0)"}, {"measurement": "CGI - Global Improvement, Mean (SD)", "setting": "[1]; [4]", "value": "2.9 (0.8)"}, {"measurement": "CGI - Global Improvement, Median", "setting": "[1]; [4]", "value": 3.0}, {"measurement": "CGI - Severity, Change from Baseline, Mean (SD)", "setting": "[1]; [4]", "value": "−0.8 (0.9)"}, {"measurement": "CGI - Severity, Change from Baseline, Median", "setting": "[1]; [4]", "value": "−1.0"}, {"measurement": "CGI - Severity, Observed Value, Mean (SD)", "setting": "[1]; [4]", "value": "3.6 (0.9)"}, {"measurement": "CGI - Severity, Observed Value, Median", "setting": "[1]; [4]", "value": 4.0}, {"measurement": "CGI - Severity, Change from Baseline, Least Squares Mean (SE)", "setting": "[1]; [4]", "value": "−0.8 (0.1)"}, {"measurement": "CGI - Global Improvement, Mean (SD)", "setting": "[1]; [5]", "value": "2.6 (0.9)"}, {"measurement": "CGI - Global Improvement, Median", "setting": "[1]; [5]", "value": 3.0}, {"measurement": "CGI - Severity, Change from Baseline, Mean (SD)", "setting": "[1]; [5]", "value": "−1.1 (1.0)"}, {"measurement": "CGI - Severity, Change from Baseline, Median", "setting": "[1]; [5]", "value": "−1.0"}, {"measurement": "CGI - Severity, Observed Value, Mean (SD)", "setting": "[1]; [5]", "value": "3.2 (1.0)"}, {"measurement": "CGI - Severity, Observed Value, Median", "setting": "[1]; [5]", "value": 3.0}, {"measurement": "CGI - Severity, Change from Baseline, Least Squares Mean (SE)", "setting": "[1]; [5]", "value": "−1.1 (0.1)"}, {"measurement": "CGI - Global Improvement, Mean (SD)", "setting": "[1]; [6]", "value": "2.4 (1.0)"}, {"measurement": "CGI - Global Improvement, Median", "setting": "[1]; [6]", "value": 2.0}, {"measurement": "CGI - Severity, Change from Baseline, Mean (SD)", "setting": "[1]; [6]", "value": "−1.4 (1.1)"}, {"measurement": "CGI - Severity, Change from Baseline, Median", "setting": "[1]; [6]", "value": "−1.0"}, {"measurement": "CGI - Severity, Observed Value, Mean (SD)", "setting": "[1]; [6]", "value": "3.0 (1.1)"}, {"measurement": "CGI - Severity, Observed Value, Median", "setting": "[1]; [6]", "value": 3.0}, {"measurement": "CGI - Severity, Change from Baseline, Least Squares Mean (SE)", "setting": "[1]; [6]", "value": "−1.3 (0.1)"}, {"measurement": "CGI - Global Improvement, Mean (SD)", "setting": "[1]; [7]", "value": "1.9 (0.9)"}, {"measurement": "CGI - Global Improvement, Median", "setting": "[1]; [7]", "value": 2.0}, {"measurement": "CGI - Severity, Change from Baseline, Mean (SD)", "setting": "[1]; [7]", "value": "−1.8 (1.2)"}, {"measurement": "CGI - Severity, Change from Baseline, Median", "setting": "[1]; [7]", "value": "−2.0"}, {"measurement": "CGI - Severity, Observed Value, Mean (SD)", "setting": "[1]; [7]", "value": "2.5 (1.0)"}, {"measurement": "CGI - Severity, Observed Value, Median", "setting": "[1]; [7]", "value": 2.5}, {"measurement": "CGI - Severity, Change from Baseline, Least Squares Mean (SE)", "setting": "[1]; [7]", "value": "−1.8 (0.1)"}, {"measurement": "CGI - Global Improvement, Mean (SD)", "setting": "[1]; [8]", "value": "1.9 (1.0)"}, {"measurement": "CGI - Global Improvement, Median", "setting": "[1]; [8]", "value": 2.0}, {"measurement": "CGI - Severity, Change from Baseline, Mean (SD)", "setting": "[1]; [8]", "value": "−1.9 (1.3)"}, {"measurement": "CGI - Severity, Change from Baseline, Median", "setting": "[1]; [8]", "value": "−2.0"}, {"measurement": "CGI - Severity, Observed Value, Mean (SD)", "setting": "[1]; [8]", "value": "2.4 (1.2)"}, {"measurement": "CGI - Severity, Observed Value, Median", "setting": "[1]; [8]", "value": 2.0}, {"measurement": "CGI - Severity, Change from Baseline, Least Squares Mean (SE)", "setting": "[1]; [8]", "value": "−1.8 (0.1)"}, {"measurement": "CGI - Severity, Change from Baseline, Least Squares Mean (SE)", "setting": "[1]; [9]", "value": "−2.2 (0.1)"}, {"measurement": "CGI - Global Improvement, Mean (SD)", "setting": "[1]; [9]", "value": "1.6 (0.9)"}, {"measurement": "CGI - Global Improvement, Median", "setting": "[1]; [9]", "value": 1.0}, {"measurement": "CGI - Severity, Change from Baseline, Mean (SD)", "setting": "[1]; [9]", "value": "−2.3 (1.2)"}, {"measurement": "CGI - Severity, Change from Baseline, Median", "setting": "[1]; [9]", "value": "−2.0"}, {"measurement": "CGI - Severity, Observed Value, Mean (SD)", "setting": "[1]; [9]", "value": "2.0 (1.0)"}, {"measurement": "CGI - Severity, Observed Value, Median", "setting": "[1]; [9]", "value": 2.0}, {"measurement": "CGI-I and CGI-S scores versus placebo", "setting": "[1]; p<0.05, 3 mg nightly + fluoxetine", "value": "significantly greater"}, {"measurement": "Subject Disposition: Discontinued, AE", "setting": "[2]", "value": "17 (6.3) n (%)"}, {"measurement": "Subject Disposition: Discontinued, Treatment for Insomnia Failure", "setting": "[2]", "value": "2 (0.7) n (%)"}]}]}
